# Laboratory results as given in patent US20220088020A1, “TREATMENT OF ALOPECIA AREATA” (LEO PHARMA A/S, priority 2015, published 2022).
# Key:
# [1] = tested on: C3H/HeJ mouse alopecia model; assay: Experiment 1: promotion of hair growth in C3H/HeJ mouse alopecia model; type: in vivo; conditions: Compound A 1% or 3% by weight in carrier, 50 μL applied to dorsal region once a day for 78 days; median of each group, FIG. 1
# Procedure: (§1) An effect of promoting hair growth by Compound A was evaluated using a C3H/HeJ mouse alopecia model (Non-Patent Literature 1).
# A skin specimen having a diameter of 2 to 2.5 cm was prepared from a retired C3H/HeJJcI mouse (CLEA Japan, Inc.) which had spontaneously developed alopecia universalis, and was grafted into a dorsal region of each of eight-week-old female C3H/HeJJcI mice (CLEA Japan, Inc.). Twenty weeks after the surgery, mice which developed alopecia throughout the whole bodies thereof were selected, and a carrier, 1% by weight of a test substance, 3% by weight of the test substance or a control substance was applied to the dorsal region at a volume of 50 μL once a day for 78 days. Day 1 was a day on which the application started. The carrier used was a mixture which contained white soft paraffin, hard paraffin and squalane at a blend ratio of 85:5:10. Compound A was used as the test substance. A betamethasone valerate ointment (0.12%) was used as the control substance.
# The Hair Growth Index (HGI) in the dorsal region of each of the mice was determined on day 1, day 7, day 15, day 29, day 43, day 57, day 71 and day 79. […]
# [2] = tested on: C3H/HeJ mouse alopecia model; assay: Experiment 2: promotion of hair growth in C3H/HeJ mouse alopecia model; type: in vivo; conditions: Compound A ointment 0.3% or 3% by weight, 50 μL applied to dorsal region once a day for 84 days; median of each group, FIG. 2
# Procedure: as §1
# A skin specimen having a diameter of 2 cm was prepared from a retired C3H/HeJJcI mouse (CLEA Japan, Inc.) which had spontaneously developed alopecia universalis, and was grafted into a dorsal region of each of eight-week-old female C3H/HeJJcI mice (CLEA Japan, Inc.). […]
# The Hair Growth Index (HGI) in the dorsal region of each of the mice was determined on day 1, day 19, day 29, day 43, day 57, day 71 and day 85. The HGI for each of the mice was calculated by measuring, with naked eyes, the level of the state of hair growth (score; 0: no hair, 1: stubble, short broken hairs, 2: sparse intermediate length hairs, 3: normal length and density hairs) and the percentage (%) of the skin area in which each level of state of hair growth occurred, determining the product of the level of the state of hair growth (score) with the percentage (%) of the skin area in which its level of the state of hair growth occurred, and then summing all of the values of the products.
# [3] = tested on: JAK; conditions: JAK = one or more of JAK1, JAK2, JAK3, TYK2; described in Patent Literature 1 and 2; cited from earlier work
compound,measurement,setting,value
"C[C@H]1CN(C(=O)CC#N)[C@]12CCN(c1ncnc3[nH]ccc13)C2 [Compound A, 3-[(3S,4R)-3-methyl-6-(7H-pyrrolo[2,3-d]pyrimidin-4-yl)-1,6-diazaspiro[3.4]octan-1-yl]-3-oxopropanenitrile]",Hair Growth Index (HGI) in the dorsal region,[1],promotion of hair growth
same,Hair Growth Index (HGI) in the dorsal region,[2],promotion of hair growth
same,JAK inhibition,[3],inhibit JAK
